Results published in patent US10800732B2, “Substituted malonamides and their use as antibacterial drugs” (National Taiwan University, priority 2015, dated 2020).
Converted amounts (≈) assume the structure as drawn. Read-outs that look alike come from different tables or passages of the source.

Experiments:
[1] = system: S. epidermidis ATCC 35984; test: MIC, S. epidermidis ATCC 35984; assay type: cell-based; conditions: Staphylococcus epidermidis, ATCC35984; S. epidermidis ATCC 35984; read-out: MIC
[2] = system: S. epidermidis ATCC 12228; test: MIC, S. epidermidis ATCC 12228; assay type: cell-based; conditions: Staphylococcus epidermidis, ATCC12228; S. epidermidis ATCC 12228; read-out: MIC
S. aureus NCTC 8325 [3] = assay type: cell-based, Staphylococcus aureus; conditions: for time to over 64-fold MIC change: sub-inhibitory concentration, serial passage; for fold MIC change (resistance): sub-inhibitory concentration for 30 consecutive days
MRSA ATCC 49476 = test: MIC, MRSA ATCC 49476; assay type: cell-based, methicillin-resistant Staphylococcus aureus; conditions: Staphylococcus aureus; MRSA ATCC 49476; read-out: MIC
S. aureus NCTC 8325 [4] = test: MIC, S. aureus NCTC 8325 (CLSI broth microdilution / agar dilution); assay type: cell-based, Staphylococcus aureus
MRSA ATCC 33592 = test: MIC, MRSA ATCC 33592; assay type: cell-based, methicillin-resistant Staphylococcus aureus; conditions: Staphylococcus aureus, MRSA ATCC 33592, read-out: MIC
MRSA SCCmec VT = test: MIC, MRSA SCCmec VT; assay type: cell-based, methicillin-resistant Staphylococcus aureus; conditions: Staphylococcus aureus; MRSA SCCmec VT; read-out: MIC
K-562 = test: Antiproliferative activity, K-562; assay type: cell-based, human; conditions: K-562, antiproliferative
Protocol: (§1) In addition to the antibacterial activities, the cytotoxic effects of these malonate derivatives on human cancer cell lines were also assessed.

HEK-293 = test: Antiproliferative activity, HEK-293; assay type: cell-based, human; conditions: HEK-293, antiproliferative
Protocol: as §1

[5] = Staphylococcus aureus, NCTC8325, S. aureus NCTC 8325, read-out: MIC
[6] = Staphylococcus aureus, NCTC8325
[7] = Staphylococcus aureus, MSSA NCTC 8325, Table 6, read-out: MIC

Row | Compound | MIC (S. aureus NCTC 8325 [4]; [7]) [µg/mL] | MIC (MRSA ATCC 33592; Table 6) [µg/mL] | further results
1 | CC1(C)S[C@@H]2[C@H](NC(=O)[C@H](N)c3ccccc3)C(=O)N2[C@H]1C(=O)O [Ampicillin] |  |  | MIC [1]: > 32 µg/mL; MIC [2]: 32 µg/mL (≈ 91.6 µM); time to over 64-fold MIC change (S. aureus NCTC 8325 [3]): ≤ 27 days; MIC (MRSA ATCC 49476): > 64 µg/mL; MIC (S. aureus NCTC 8325 [4]; [5]): 0.25 µg/mL (≈ 0.715 µM); MIC (MRSA ATCC 33592): > 64 µg/mL; MIC (MRSA SCCmec VT): 64 µg/mL (≈ 183 µM)
2 | O=C(N[C@H](CO)[C@H](O)c1ccc([N+](=O)[O-])cc1)C(Cl)Cl [Chloramphenicol] |  |  | MIC [2]: 2 µg/mL (≈ 6.19 µM); fold MIC change (resistance) (S. aureus NCTC 8325 [3]): no resistance; MIC (MRSA ATCC 49476): 8 µg/mL (≈ 24.8 µM); MIC (S. aureus NCTC 8325 [4]; [5]): 4 µg/mL (≈ 12.4 µM); MIC (MRSA ATCC 33592): 32 µg/mL (≈ 99 µM); MIC (MRSA SCCmec VT): 64 µg/mL (≈ 198 µM)
3 | CC[C@H]1OC(=O)[C@H](C)[C@@H](O[C@H]2C[C@@](C)(OC)[C@@H](O)[C@H](C)O2)[C@H](C)[C@@H](O[C@@H]2O[C@H](C)C[C@H](N(C)C)[C@H]2O)[C@](C)(O)C[C@@H](C)C(=O)[C@H](C)[C@@H](O)[C@]1(C)O [Erythromycin] |  |  | MIC [1]: 4 µg/mL (≈ 5.45 µM); MIC [2]: 4 µg/mL (≈ 5.45 µM); time to over 64-fold MIC change (S. aureus NCTC 8325 [3]): ≤ 17 days; MIC (MRSA ATCC 49476): > 64 µg/mL; MIC (S. aureus NCTC 8325 [4]; [5]): 0.5 µg/mL (≈ 0.681 µM); MIC (MRSA ATCC 33592): > 64 µg/mL; MIC (MRSA SCCmec VT): > 64 µg/mL
4 | CC1COc2c(N3CCN(C)CC3)c(F)cc3c(=O)c(C(=O)O)cn1c23 (centres unmarked) [Ofloxacin] |  |  | MIC [2]: 0.25 µg/mL (≈ 0.692 µM); fold MIC change (resistance) (S. aureus NCTC 8325 [3]): 8 fold; MIC (MRSA ATCC 49476): 0.5 µg/mL (≈ 1.38 µM); MIC (S. aureus NCTC 8325 [4]; [6]): 0.125 µg/mL (≈ 0.346 µM); MIC (MRSA ATCC 33592): 0.25 µg/mL (≈ 0.692 µM); MIC (MRSA SCCmec VT): 0.25 µg/mL (≈ 0.692 µM)
5 | CO[C@H]1/C=C/O[C@@]2(C)Oc3c(C)c(O)c4c(O)c(c(/C=N/N5CCN(C)CC5)c(O)c4c3C2=O)NC(=O)/C(C)=C\C=C\[C@H](C)[C@H](O)[C@@H](C)[C@@H](O)[C@@H](C)[C@H](OC(C)=O)[C@@H]1C [Rifampicin] |  |  | MIC [2]: < 0.004 µg/mL; time to over 64-fold MIC change (S. aureus NCTC 8325 [3]): ≤ 6 days; MIC (MRSA ATCC 49476): 0.25 µg/mL (≈ 0.304 µM); MIC (S. aureus NCTC 8325 [4]; [6]): 0.125 µg/mL (≈ 0.152 µM); MIC (MRSA ATCC 33592): > 64 µg/mL; MIC (MRSA SCCmec VT): 0.5 µg/mL (≈ 0.608 µM)
6 | CCOC(=O)C1=C(N)Oc2ccc(Cl)cc2C1C(C#N)C(=O)OCC (centres unmarked) [SC79] |  |  | IC50 (K-562): 1.78 µg/mL (≈ 4.88 µM); MIC (S. aureus NCTC 8325 [4]; S. aureus NCTC 8325, Table 2): 0.5 µg/mL (≈ 1.37 µM); IC50 (HEK-293): 2.22 µg/mL (≈ 6.09 µM)
7 | O=C(Nc1ccc(Cl)c(C(F)(F)F)c1)C1(C(=O)Nc2ccc(Cl)c(C(F)(F)F)c2)CC1 [SC5020, N,N′-bis(4-chloro-3-(trifluoromethyl)phenyl)cyclopropane-1,1-dicarboxamide] | > 8 |  | 
8 | C#Cc1cccc(NC(=O)C2(C(=O)Nc3cccc(C#C)c3)CC2)c1 [SC5021, N,N′-bis(3-ethynylphenyl)cyclopropane-1,1-dicarboxamide] | 8 (≈ 24.4 µM) |  | 
9 | O=C(Nc1ccccc1)C(CCCl)C(=O)Nc1ccccc1 [SC5022, 2-(2-chloroethyl)-N^1,N^3-diphenylmalonamide] | > 8 |  | 
10 | O=C(Nc1cccc(C(F)(F)F)c1)C(CCCl)C(=O)Nc1cccc(C(F)(F)F)c1 [SC5023, 2-(2-chloroethyl)-N^1,N^3-bis(3-(trifluoromethyl)phenyl)malonamide] | 2 (≈ 4.42 µM) | 1 (≈ 2.21 µM) | 
11 | O=C(Nc1ccc(OC(F)(F)F)cc1)C(CCCl)C(=O)Nc1ccc(OC(F)(F)F)cc1 [SC5024, 2-(2-chloroethyl)-N^1,N^3-bis(4-(trifluoromethoxy)phenyl)malonamide] | 1 (≈ 2.06 µM) | 1 (≈ 2.06 µM) | 
12 | O=C(Nc1cc(Cl)cc(Cl)c1)C(CCCl)C(=O)Nc1cc(Cl)cc(Cl)c1 [SC5025, 2-(2-chloroethyl)-N^1,N^3-bis(3,5-dichlorophenyl)malonamide] | 0.25 (≈ 0.55 µM) | 0.25 (≈ 0.55 µM) | 
13 | C#Cc1cccc(NC(=O)C(CCCl)C(=O)Nc2cccc(C#C)c2)c1 [SC5026, 2-(2-chloroethyl)-N^1,N^3-bis(3-ethynylphenyl)malonamide] | > 8 |  | 
14 | O=C(Nc1cccc(Cl)c1)C(CCCl)C(=O)Nc1cccc(Cl)c1 [SC5027, 2-(2-chloroethyl)-N^1,N^3-bis(3-chlorophenyl)malonamide] | > 8 |  | 
15 | O=C(Nc1cccc([N+](=O)[O-])c1)C(CCCl)C(=O)Nc1cccc([N+](=O)[O-])c1 [SC5028, 2-(2-chloroethyl)-N^1,N^3-bis(3-nitrophenyl)malonamide] | > 64 |  | 
16 | Cc1ccc(NC(=O)C(CCCl)C(=O)Nc2ccc(C)c(O)c2)cc1O [SC5029, 2-(2-chloroethyl)-N^1,N^3-bis(3-hydroxy-4-methylphenyl)malonamide] | 8 (≈ 21.2 µM) |  | 
17 | O=C(Nc1ccc(Cl)c(O)c1)C(CCCl)C(=O)Nc1ccc(Cl)c(O)c1 [SC5030, N^1,N^3-bis(4-chloro-3-hydroxyphenyl)-2-(2-chloroethyl)malonamide] | > 16 |  | 
18 | O=C(Nc1cccc(O)c1)C(CCCl)C(=O)Nc1cccc(O)c1 [SC5031, 2-(2-chloroethyl)-N^1,N^3-bis(3-hydroxyphenyl)malonamide] | > 64 |  | 

Row | Compound | MIC (S. aureus NCTC 8325 [4]; [7]) [µg/mL] | MIC (MRSA ATCC 33592; Table 6) [µg/mL] | further results
19 | O=C(Nc1cc(C(F)(F)F)cc(C(F)(F)F)c1)C(CCCl)C(=O)Nc1cc(C(F)(F)F)cc(C(F)(F)F)c1 [SC5032, N,N^3-bis(3,5-bis(trifluoromethyl)phenyl)-2-(2-chloroethyl)malonamide] | 32 (≈ 54.4 µM) |  | 
20 | O=C(Nc1ccc([N+](=O)[O-])c(C(F)(F)F)c1)C(CCCl)C(=O)Nc1ccc([N+](=O)[O-])c(C(F)(F)F)c1 [SC5034, 2-(2-chloroethyl)-N^1,N^3-bis(4-nitro-3-(trifluoromethyl)phenyl)malonamide] | 1 (≈ 1.84 µM) |  | 
21 | O=C(Nc1cc(Cl)cc(Cl)c1)C(CCCl)C(=O)Nc1cc(C(F)(F)F)cc(C(F)(F)F)c1 (centres unmarked) [SC5036, N^1-(3,5-bis(trifluoromethyl)phenyl)-2-(2-chloroethyl)-N^3-(3,5-dichlorophenyl) malonamide] | 0.25 (≈ 0.479 µM) | 0.5 (≈ 0.958 µM) | 
22 | C=CCC(C(=O)Nc1ccc(Cl)c(C(F)(F)F)c1)C(=O)Nc1ccc(Cl)c(C(F)(F)F)c1 [SC5037, 2-allyl-N^1,N^3-bis(4-chloro-3-(trifluoromethyl)phenyl)malonamide] | 8 (≈ 16 µM) | > 32 | 
23 | C#Cc1cccc(NC(=O)C(CC=C)C(=O)Nc2cccc(C#C)c2)c1 [SC5038, 2-allyl-N^1,N^3-bis(3-ethynylphenyl)malonamide] | > 32 | > 32 | 
24 | C=CCC(C(=O)Nc1cccc(CC)c1)C(=O)Nc1cccc(CC)c1 [SC5039, 2-allyl-N^1,N^3-bis(3-ethylphenyl)malonamide] | > 32 | > 32 | 
25 | C=CCC(C(=O)Nc1cc(Cl)cc(Cl)c1)C(=O)Nc1cc(Cl)cc(Cl)c1 [SC5040, 2-allyl-N^1,N^3-bis(3,5-dichlorophenyl)malonamide] | > 32 | > 32 | 
26 | O=C(Nc1cc(Cl)cc(Cl)c1)C(CCCl)C(=O)Nc1ccc([N+](=O)[O-])c(C(F)(F)F)c1 (centres unmarked) [SC5041, 2-(2-chloroethyl)-N^1-(3,5-dichlorophenyl)-N^3-(4-nitro-3-(trifluoromethyl)phenyl)malonamide] | 0.5 (≈ 1 µM) | 0.5 (≈ 1 µM) | 
27 | CCCNC(=O)C(CCCl)C(=O)NCCC [SC5046, 2-(2-chloroethyl)-N1,N3-dipropylmalonamide] | > 64 | > 64 | 
28 | CCCCNC(=O)C(CCCl)C(=O)NCCCC [SC5047, N1,N3-dibutyl-2-(2-chloroethyl)malonamide] | > 64 | > 64 | 
29 | O=C(NC1CCCCC1)C(CCCl)C(=O)NC1CCCCC1 [SC5048, 2-(2-chloroethyl)-N1,N3-dicyclohexylmalonamide] | > 64 | > 64 | 
30 | CCCNC(=O)C(CCCl)C(=O)Nc1ccc(Cl)c(C(F)(F)F)c1 (centres unmarked) [SC5049, N1-(4-chloro-3-(trifluoromethyl)phenyl)-2-(2-chloroethyl)-N3-propylmalonamide] | > 64 | > 64 | 
31 | C=CCNC(=O)C(CCCl)C(=O)Nc1ccc(Cl)c(C(F)(F)F)c1 (centres unmarked) [SC5050, N1-allyl-N3-(4-chloro-3-(trifluoromethyl)phenyl)-2-(2-chloroethyl)malonamide] | > 64 | > 64 | 
32 | C=CCNC(=O)C(CCCl)C(=O)NCC=C [SC5051, N1,N3-diallyl-2-(2-chloroethyl)malonamide] | > 64 | > 64 | 
33 | CCCCNC(=O)C(CCCl)C(=O)Nc1ccc(Cl)c(C(F)(F)F)c1 (centres unmarked) [SC5052, N1-butyl-N3-(4-chloro-3-(trifluoromethyl)phenyl)-2-(2-chloroethyl)malonamide] | > 64 | > 64 | 
34 | O=C(Nc1ccc(Cl)c(C(F)(F)F)c1)C(CCCl)C(=O)NC1CCCCC1 (centres unmarked) [SC5053, N1-(4-chloro-3-(trifluoromethyl)phenyl)-2-(2-chloroethyl)-N3-cyclohexylmalonamide] | > 64 | > 64 | 
35 | CN(C)[C@@H]1C(O)=C(C(N)=O)C(=O)[C@@]2(O)C(O)=C3C(=O)c4c(O)cccc4[C@@](C)(O)[C@H]3C[C@@H]12 [Tetracycline] |  |  | MIC [1]: 0.25 µg/mL (≈ 0.563 µM); MIC [2]: 8 µg/mL (≈ 18 µM); MIC (MRSA ATCC 49476): > 64 µg/mL; MIC (MRSA ATCC 33592): > 64 µg/mL; MIC (MRSA SCCmec VT): 32 µg/mL (≈ 72 µM)
36 | N^1,N^3-bis(4-pentafluorosulfurphenyl)-2-(2-chloroethyl)malonamide [SC5033] |  |  | MIC (S. aureus NCTC 8325 [4]; MSSA NCTC 8325, Table 6): 32 µg/mL
